Columns and labels:
[1] = system: R1 ESC; test: Dopaminergic differentiation of ESCs on PA6 stromal cells; assay type: cell-based, mouse
Protocol: For more specific dopaminergic differentiation, R1 ESC were plated on a confluent monolayer of mitomycin-C treated (2 hour, 20 ug/ml, Sigma) stromal PA6 cells (Riken Cell Bank) at a density of 100 cells/cm^2 and differentiated based on the methods of Barberi et al, 2003 with the following modifications, FIG. 7(a)^27. Cells were initially cultured in serum-replacement media (Dulbecco's modified Eagle medium with 15% serum replacement, 2 mM L-glutamine and 10 uM β-mercaptoethanol, Gibco-Invitrogen) containing Noggin (300 ng/ml, R&D Systems). After 5 days the media was replenished and supplemented with Noggin plus morphogens fibroblast growth factor-8 (FGF8, 100 ng/ml) and Sonic Hedgehog (Shh, 500 ng/ml), previously shown to be important in midbrain DA neuron development. At day 8, cultures were changed into N2 media (a 1:1 mixture of F12 and MEM with 15 mM HEPES buffer, 1 mM glutamine, 6 mg/ml glucose (Sigma-Aldrich), 3 mg/ml Albumax and N2 supplement (all purchased from Invitrogen)) supplemented with FGF2 (20 ng/ml), Shh, FGF8 and Wnt5a (previously shown to be important in the differentiation of dopaminergic precursors in vitro and in vivo^25, 56. Finally at day 11, cultures were exposed to survival factors brain derived neurotrophic factor (BDNF, 30 ng/ml), glial derived neurotrophic factor (GDNF, 30 ng/ml) and ascorbic acid (AA, 100 uM). In addition, peptides (Control peptide, CP; Dimer peptide, DP or Cripto Blocking peptide, Cripto BP, 12.5 uM) were added to the cultures from day 1-11. Peptides were replenished in the media every second day.
Hoescht counterstaining was used for visualization of all cells within the cultures. The proportion of neuron containing colonies (labeled for using the immature neuronal marker βIII-tubulin (Tuj1)) and the number of dopaminergic neurons/μm^2 colony (identified using a marker for the precursor enzyme in DA synthesis, TH) were counted. Differentiation experiments were performed in triplicate.
The authors next examined whether DA differentiation could be promoted. To this end, the authors used a DA differentiation protocol involving co-culturing on stromal cells^27, to which additional modifications were incorporated (FIG. 7a). In brief, ESCs were plated at low density onto stromal cells (PA6) for a period of 5 days, to promote neural induction. From day 0-8, cultures were treated with noggin to enhance neuronal induction. From day 8-11, cultures where changed into neuronal (N2) media in the presence of Shh and FGF-8 (for ventral midbrain patterning) and basic FGF (to expand the pool of DA precursors), as well as Wnt5a (involved in DA neuron differentiation in vitro and in vivo^25, 43). Control peptide (CP) or Cripto BP (BP) were added to the differentiating ESCs from day 1 to day 11. […]

[2] = system: Parkinsonian rats; test: Amphetamine-induced rotational behaviour of ESC-grafted Parkinsonian rats; assay type: in vivo, rat; settings: for improvement in amphetamine-induced rotations: pre-treated ESCs + peptide infusion
Excerpt: Thirty-seven adult male Sprague Dawley rats (250-350 g; from ARC, Australia) were housed and treated according to the guidelines of the Australian and Howard Florey Institute animal ethics committee (07-030). Animals received unilateral stereotaxic injections of 6-OHDA into the substantia nigra pars compacta (SNpc) to create a complete lesion of the midbrain DA neurons, as previously described^29. Lesioned animals were selected for transplantation based on their response to amphetamine induced rotational behaviour as previously described^29. Animals making greater than 6 rotations/min (lesion greater than 80%) were selected for grafting.
Two days prior to grafting animals began cyclosporine-A immune suppression (10 mg/kg). Fourteen days post-lesioning selected animals (determined by behavioural rotations) were again anesthetized and stereotaxically injected with 1 μl of cell suspension at each of the 4 sites as previously described^29. Stereotaxic coordinates of 1st & 2nd Injection (from bregma): anterior 0.2 mm, lateral 3.0 mm, ventral 4.5 and 5.0 mm; 3rd & 4th Injection, anterior 1.0 mm, lateral 2.5 mm, ventral 4.5 and 5.0 mm; incisor bar 0 mm^57). ESCs were differentiated as outlined in FIG. 7a. In brief, ESC colonies were dissected away from the stromal feeder layer and dissociated using collagenase/dispase with agitation (700 μg/ml, Roche, for 20 min, 80 rpm). Cells were subsequently resuspended at a density of 3,000 cells/μl ready for grafting. Five rats received Sham injections (4 μl N2 media, 1 μl/site), 16 rats received a total of 12,000 ESCs (4×1 μl grafts) pre-treated with the Control peptide (of which 9 of these animals also received infusion of the Control peptide) and a further 16 rats received grafts pretreated with the Cripto blocking peptide (9 animals receiving infusion of the Cripto BP).
The peptide infusion was performed by implantation of a cannula into the striatum (Alzet brain infusion kit) connected to a subcutaneously placed osmotic minipump (Alzet) prefilled with either CP or Cripto BP. Implantation was performed at the same time as the cell grafting. Cannula coordinates: anterior 0.5 mm, lateral 1.5 mm, ventral 5.0 mm; incisor bar 0 mm^57. The osmotic pump was capable of continuously delivering the peptide over a 3 weeks period (75 μM, 0.25 μl/hr) upon which time the animals were briefly anaesthetized with isoflurane and the pump removed through a small incision over the scapular region.

[3] = target: T1, ALK-4 receptor (Homo sapiens, UniProt P36896); test: ELISA binding of ALK-4 receptor to plate-coated peptide; settings: peptide coated at 50 μM; ALK-4 50 to 200 ng/ml
T1 construct: the extracellular domain of ALK-4 receptor fused to human Fc (R&D Systems); purchased R&D Systems
T1 sequence (P36896 24-126 limits assumed): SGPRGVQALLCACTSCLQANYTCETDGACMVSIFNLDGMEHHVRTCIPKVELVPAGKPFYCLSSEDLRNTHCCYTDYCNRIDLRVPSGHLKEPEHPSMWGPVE
Protocol: To evaluate the binding of Cripto BP to either Cripto or ALK-4 receptor, BP or control peptides (CP; 50 μM) were coated on the surface of a 96-well microtiter plate and incubated over night at 4° C. Wells were washed five times with PBS Tween (PBT) and the aspecific sites blocked for 3 h at RT with 1% Bovine Serum Albumin (BSA) in PBS, 180 μL/well. Wells were washed as above, and the recombinant form of either ALK-4-humanFc chimeric receptor or Cripto protein in PBT were added at the indicated concentrations and incubated for 1 h at 37° C. followed by 1 hr at RT. After washing with PBT, to evaluate the binding of Cripto to 26-23-23, rabbit anti-Cripto IgG (6 μg/ml) were added to the plates and incubated 1 h at 37° C. and 1 hr at RT. After washing in PBT, a goat anti-rabbit […] (Santa Crutz) was added to the plate (0.3 μg/ml) and incubated 1 h at RT. Finally, the plate was developed as reported above. To evaluate the binding of ALK4 to 26-23-23, the extracellular domain of ALK-4 receptor fused to human Fc (R&D Systems) was added at the indicated concentrations and a goat anti-human Fc (Jackson ImmunoResearch; 1:1000) was used.

[4] = peptide 12.5 uM day 1-11, 14 days on PA6

C[S+]([O-])CCC(N)C(=O)N[C@@H](CSCc1ccccc1)C(=O)N[C@@H](CSCc1ccccc1)C(=O)N[C@@H](CCCCNC(=O)[C@H](CSCc1ccccc1)NC(=O)[C@H](CSCc1ccccc1)NC(=O)[C@@H](N)CC[S+](C)[O-])C(=O)N[C@@H](CCCCNC(=O)[C@H](CCCCNC(=O)[C@H](CSCc1ccccc1)NC(=O)[C@H](CSCc1ccccc1)NC(=O)[C@@H](N)CC[S+](C)[O-])NC(=O)[C@H](CSCc1ccccc1)NC(=O)[C@H](CSCc1ccccc1)NC(=O)[C@@H](N)CC[S+](C)[O-])C(=O)NCC(=O)O (stereo partly drawn) [Cripto BP]
yield of DA neurons derived from wildtype ESCs ([1]; Noggin and Wnt5a in conjunction with Cripto BP): enhanced further | DA neurons per TH-ir colony ([1]; peptide 12.5 uM day 1-11): 286 % greater than control | colonies immunoreactive for βIII-tubulin [1, 4]: 91% | proportion of colonies containing TH-ir DA neurons [1, 4]: 62% | functional improvement in rotational behaviour compared to shams ([2]; 12,000 ESCs pre-treated, without infusion): significant reductions in amphetamine induced rotational behaviour as early as week 2 post-grafting | improvement in amphetamine-induced rotations [2]: significantly improved functional recovery | improvement in amphetamine-induced rotations ([2]; mean±SD): 69.6±8.4% | reduction in amphetamine induced rotational behaviour ([2]; pre-treated ESCs without infusion, 8 weeks postgrafting, mean±SD): 66.2±8.4% | binding of ALK-4 receptor to immobilized peptide [3]: not ALK-4 specifically recognized

— US20110028401A1, “CRIPTO BLOCKING MOLECULES AND THERAPEUTIC USES THEREOF” (CONSIGLIO NAZIONALE DELLE RICERCHE, priority 2009, published 2011)
